≈ marks a conversion by molar mass, not a printed value. Like-named read-outs stand apart in the source and are kept apart here.
Tested on: C. albicans isolates
Test: Broth microdilution susceptibility (CLSI M27-A3) at different medium pH
Type: cell-based, Candida albicans
Details: Candida albicans, 24 h; for MIC50: read-out: MIC50; for MIC90: read-out: MIC90
Method: Ten strains each of C. glabrata and C. albicans vaginal isolates were tested. The strains were obtained from recent clinical trial patients with vulvovaginal candidiasis (VVC) prior to treatment. Candida strains were obtained from the Mycology Reference Library (MRL) at Case Western Reserve University School of Medicine, Ohio, United States.
Susceptibility testing was performed using a broth microdilution method, according to CLSI M27-A3 guidelines (CLSI. 2008. Reference Method for Broth Dilution Antifungal Susceptibility Testing of Yeasts; Approved Standard—Third Edition. Clinical and Laboratory Standards Institute, CLSI document M27-A3). Antifungals and concentrations tested were SCY-078 and micafungin (both at concentrations within the range of 0.015 to 8 μg/ml) and fluconazole (at concentrations within the range of 0.125 to 64 μg/ml). A 0.1-ml C. albicans and C. glabrata inoculum of 0.5-2.5×10^3 blastospores/ml in RPMI 1640 medium was added to each microdilution well. ATCC strains of Candida parapsilosis and Candida krusei QC isolates were also included concurrently to ensure quality control. Antifungal susceptibility testing was carried out for each isolate in RPMI 1640 at pH 7 (to mimic RPMI medium used in testing the susceptibility of yeast by the CLSI M-27A3 document), pH 5.7, and pH 4.5 (to mimic the pH of the vaginal cavity) by adjusting the pH of the media using NaOH or HCl. […] Agents Chemother., 43: 1383-1386 (1999).
[…] SCY-078 powder was manufactured by Avista, Laboratories, NC. Micafungin and fluconazole were sourced from LGM Pharma.

[1] = pH 7, 50% inhibition, pH 7.0, 24 h, 10 vaginal isolates
[2] = pH 7, 100% inhibition, pH 7.0, 24 hours, 10 isolates

## CC(C)[C@@H](C)[C@@]1(C)CC[C@]2(C)[C@H]3CC[C@@H]4[C@@]5(COC[C@]4(C)[C@@H](OC[C@](C)(N)C(C)(C)C)[C@H](n4ncnc4-c4ccncc4)C5)C3=CC[C@@]2(C)[C@@H]1C(=O)O [SCY-078]
pH 5.72, C. albicans MRL 34372, pH 5.72, 24 hours, read-out: MIC (50% inhibition)
  MIC: 0.25 µg/mL (≈ 0.342 µM)
pH 5.72, C. albicans MRL 34372, pH 5.72, 24 hours, read-out: MIC (100% inhibition)
  MIC: 0.25 µg/mL (≈ 0.342 µM)
pH 5.72, C. albicans MRL 34373, pH 5.72, 24 hours, read-out: MIC (50% inhibition)
  MIC: 0.25 µg/mL (≈ 0.342 µM)
pH 5.72, C. albicans MRL 34373, pH 5.72, 24 hours, read-out: MIC (100% inhibition)
  MIC: 0.25 µg/mL (≈ 0.342 µM)
pH 5.72, C. albicans MRL 34374, pH 5.72, 24 hours, read-out: MIC (50% inhibition)
  MIC: 0.125 µg/mL (≈ 0.171 µM)
pH 5.72, C. albicans MRL 34374, pH 5.72, 24 hours, read-out: MIC (100% inhibition)
  MIC: 0.25 µg/mL (≈ 0.342 µM)
pH 5.72, C. albicans MRL 34385, pH 5.72, 24 hours, read-out: MIC (50% inhibition)
  MIC: 0.25 µg/mL (≈ 0.342 µM)
pH 5.72, C. albicans MRL 34385, pH 5.72, 24 hours, read-out: MIC (100% inhibition)
  MIC: 0.5 µg/mL (≈ 0.685 µM)
pH 5.72, C. albicans MRL 34389, pH 5.72, 24 hours, read-out: MIC (50% inhibition)
  MIC: 0.25 µg/mL (≈ 0.342 µM)
pH 5.72, C. albicans MRL 34389, pH 5.72, 24 hours, read-out: MIC (100% inhibition)
  MIC: 0.25 µg/mL (≈ 0.342 µM)
pH 5.72, C. albicans MRL 34399, pH 5.72, 24 hours, read-out: MIC (50% inhibition)
  MIC: 0.25 µg/mL (≈ 0.342 µM)
pH 5.72, C. albicans MRL 34399, pH 5.72, 24 hours, read-out: MIC (100% inhibition)
  MIC: 0.25 µg/mL (≈ 0.342 µM)
pH 5.72, C. albicans MRL 34408, pH 5.72, 24 hours, read-out: MIC (50% inhibition)
  MIC: 0.25 µg/mL (≈ 0.342 µM)
pH 5.72, C. albicans MRL 34408, pH 5.72, 24 hours, read-out: MIC (100% inhibition)
  MIC: 2 µg/mL (≈ 2.74 µM)
pH 5.72, C. albicans MRL 34449, pH 5.72, 24 hours, read-out: MIC (50% inhibition)
  MIC: 0.25 µg/mL (≈ 0.342 µM)
pH 5.72, C. albicans MRL 34449, pH 5.72, 24 hours, read-out: MIC (100% inhibition)
  MIC: 0.25 µg/mL (≈ 0.342 µM)
[1]
  MIC50: 0.25 µg/mL (≈ 0.342 µM)
  MIC90: 0.5 µg/mL (≈ 0.685 µM)
[2]
  MIC50: 0.25 µg/mL (≈ 0.342 µM)
  MIC90: 0.5 µg/mL (≈ 0.685 µM)
pH 7, C. albicans MRL 34366, pH 7.0, 24 hours, read-out: MIC (50% inhibition)
  MIC: 0.5 µg/mL (≈ 0.685 µM)
pH 7, C. albicans MRL 34366, pH 7.0, 24 hours, read-out: MIC (100% inhibition)
  MIC: 0.5 µg/mL (≈ 0.685 µM)
pH 7, C. albicans MRL 34367, pH 7.0, 24 hours, read-out: MIC (50% inhibition)
  MIC: 0.125 µg/mL (≈ 0.171 µM)
pH 7, C. albicans MRL 34367, pH 7.0, 24 hours, read-out: MIC (100% inhibition)
  MIC: 0.5 µg/mL (≈ 0.685 µM)
pH 7, C. albicans MRL 34372, pH 7.0, 24 hours, read-out: MIC (50% inhibition)
  MIC: 0.25 µg/mL (≈ 0.342 µM)
pH 7, C. albicans MRL 34372, pH 7.0, 24 hours, read-out: MIC (100% inhibition)
  MIC: 0.25 µg/mL (≈ 0.342 µM)
pH 7, C. albicans MRL 34373, pH 7.0, 24 hours, read-out: MIC (50% inhibition)
  MIC: 0.25 µg/mL (≈ 0.342 µM)
pH 7, C. albicans MRL 34373, pH 7.0, 24 hours, read-out: MIC (100% inhibition)
  MIC: 0.25 µg/mL (≈ 0.342 µM)
pH 7, C. albicans MRL 34374, pH 7.0, 24 hours, read-out: MIC (50% inhibition)
  MIC: 0.25 µg/mL (≈ 0.342 µM)
pH 7, C. albicans MRL 34374, pH 7.0, 24 hours, read-out: MIC (100% inhibition)
  MIC: 0.25 µg/mL (≈ 0.342 µM)
pH 7, C. albicans MRL 34385, pH 7.0, 24 hours, read-out: MIC (50% inhibition)
  MIC: 0.25 µg/mL (≈ 0.342 µM)
pH 7, C. albicans MRL 34385, pH 7.0, 24 hours, read-out: MIC (100% inhibition)
  MIC: 0.5 µg/mL (≈ 0.685 µM)
pH 7, C. albicans MRL 34389, pH 7.0, 24 hours, read-out: MIC (50% inhibition)
  MIC: 0.125 µg/mL (≈ 0.171 µM)
pH 7, C. albicans MRL 34389, pH 7.0, 24 hours, read-out: MIC (100% inhibition)
  MIC: 0.25 µg/mL (≈ 0.342 µM)
pH 7, C. albicans MRL 34399, pH 7.0, 24 hours, read-out: MIC (50% inhibition)
  MIC: 0.25 µg/mL (≈ 0.342 µM)
pH 7, C. albicans MRL 34399, pH 7.0, 24 hours, read-out: MIC (100% inhibition)
  MIC: 0.25 µg/mL (≈ 0.342 µM)
pH 7, C. albicans MRL 34408, pH 7.0, 24 hours, read-out: MIC (50% inhibition)
  MIC: 0.5 µg/mL (≈ 0.685 µM)
pH 7, C. albicans MRL 34408, pH 7.0, 24 hours, read-out: MIC (100% inhibition)
  MIC: 4 µg/mL (≈ 5.48 µM)
pH 7, C. albicans MRL 34449, pH 7.0, 24 hours, read-out: MIC (50% inhibition)
  MIC: 0.25 µg/mL (≈ 0.342 µM)
pH 7, C. albicans MRL 34449, pH 7.0, 24 hours, read-out: MIC (100% inhibition)
  MIC: 0.5 µg/mL (≈ 0.685 µM)

Reference: US20260000656A1, “ANTIFUNGAL AGENTS WITH ENHANCED ACTIVITY IN ACIDIC PH” (Scynexis, Inc., priority 2017, published 2026)
